In patent publication US11725011B2, “Bicyclic urea kinase inhibitors and uses thereof” (The Broad Institute, Inc., priority 2016, dated 2023):

Legend:
Experiment in all cases: KINOMEscan
Type in all cases: binding
Conditions in all cases: 1 uM
ACVR1B = ACVR1B (Homo sapiens (Human), UniProt P36896)
ACVRL1 = ACVRL1 (Homo sapiens (Human), UniProt P37023)
ANKK1 = ANKK1 (Homo sapiens (Human), UniProt Q8NFD2)
CDK8 = CDK8 (Homo sapiens (Human), UniProt P49336)
CDKL3 = CDKL3 (Homo sapiens (Human), UniProt Q8IVW4)
CHEK1 = CHEK1 (Homo sapiens (Human), UniProt O14757)
CIT = CIT (Homo sapiens (Human), UniProt O14578)
CLK4 = CLK4 (Homo sapiens (Human), UniProt Q9HAZ1)
CSF1R = CSF1R (Homo sapiens (Human), UniProt P07333)
CSK = CSK (Homo sapiens (Human), UniProt P41240)
DAPK1 = DAPK1 (Homo sapiens (Human), UniProt P53355)
DAPK2 = DAPK2 (Homo sapiens (Human), UniProt Q9UIK4)
EGFR (L858R, T790M) = EGFR (L858R, T790M) (Homo sapiens (Human), UniProt P00533, L858R/T790M)
ERN1 = ERN1 (Homo sapiens (Human), UniProt O75460)
IRAK3 = IRAK3 (Homo sapiens (Human), UniProt Q9Y616)
[1] = target: JAK1 (JH2 domain-pseudokinase) (Homo sapiens (Human), UniProt P23458)
LIMK1 = LIMK1 (Homo sapiens (Human), UniProt P53667)
LYN = LYN (Homo sapiens (Human), UniProt P07948)
MARK3 = MARK3 (Homo sapiens (Human), UniProt P27448)
MARK4 = MARK4 (Homo sapiens (Human), UniProt Q96L34)
MEK1 = MEK1 (Homo sapiens (Human), UniProt Q02750)
MET (Y1235D) = MET (Y1235D) (Homo sapiens (Human), UniProt P08581, Y1235D)
MRCKB = MRCKB (Homo sapiens (Human), UniProt Q9Y5S2)
MYLK = MYLK (Homo sapiens (Human), UniProt Q15746)
NEK1 = NEK1 (Homo sapiens (Human), UniProt Q96PY6)
PAK3 = PAK3 (Homo sapiens (Human), UniProt O75914)
PCTK2 = PCTK2 (Homo sapiens (Human), UniProt Q00537)
PIK3CA = PIK3CA (Homo sapiens (Human), UniProt P42336)
PIK3CD = PIK3CD (Homo sapiens (Human), UniProt O00329)
PIK4CB = PIK4CB (Homo sapiens (Human), UniProt Q9UBF8)
PKAC-alpha = PKAC-alpha (Homo sapiens (Human), UniProt P17612)
PLK3 = PLK3 (Homo sapiens (Human), UniProt Q9H4B4)
PRKCH = PRKCH (Homo sapiens (Human), UniProt P24723)
PRKCQ = PRKCQ (Homo sapiens (Human), UniProt Q04759)
RIOK1 = RIOK1 (Homo sapiens (Human), UniProt Q9BRS2)
RIPK1 = RIPK1 (Homo sapiens (Human), UniProt Q13546)
SGK3 = SGK3 (Homo sapiens (Human), UniProt Q96BR1)
SRPK3 = SRPK3 (Homo sapiens (Human), UniProt Q9UPE1)
TRKA = TRKA (Homo sapiens (Human), UniProt P04629)
TSSK1B = TSSK1B (Homo sapiens (Human), UniProt Q9BXA7)
ULK3 = ULK3 (Homo sapiens (Human), UniProt Q6PHR2)

Sequence of CDKL3 (Q8IVW4 whole entry): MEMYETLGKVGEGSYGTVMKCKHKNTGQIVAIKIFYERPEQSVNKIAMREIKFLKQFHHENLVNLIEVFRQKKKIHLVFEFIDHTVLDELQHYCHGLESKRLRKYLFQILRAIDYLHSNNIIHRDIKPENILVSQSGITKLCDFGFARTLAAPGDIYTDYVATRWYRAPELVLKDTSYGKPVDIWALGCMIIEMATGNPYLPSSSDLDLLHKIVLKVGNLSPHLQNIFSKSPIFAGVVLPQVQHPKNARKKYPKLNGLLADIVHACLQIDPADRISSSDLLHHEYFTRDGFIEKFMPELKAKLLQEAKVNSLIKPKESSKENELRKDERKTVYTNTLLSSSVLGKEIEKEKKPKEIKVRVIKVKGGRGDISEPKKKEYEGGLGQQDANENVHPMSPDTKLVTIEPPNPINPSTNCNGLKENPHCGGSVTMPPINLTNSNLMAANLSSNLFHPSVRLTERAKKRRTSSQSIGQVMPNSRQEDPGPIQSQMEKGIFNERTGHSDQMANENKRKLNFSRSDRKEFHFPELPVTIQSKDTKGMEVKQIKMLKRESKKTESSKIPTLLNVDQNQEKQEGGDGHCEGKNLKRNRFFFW
Sequence of PAK3 (O75914 whole entry): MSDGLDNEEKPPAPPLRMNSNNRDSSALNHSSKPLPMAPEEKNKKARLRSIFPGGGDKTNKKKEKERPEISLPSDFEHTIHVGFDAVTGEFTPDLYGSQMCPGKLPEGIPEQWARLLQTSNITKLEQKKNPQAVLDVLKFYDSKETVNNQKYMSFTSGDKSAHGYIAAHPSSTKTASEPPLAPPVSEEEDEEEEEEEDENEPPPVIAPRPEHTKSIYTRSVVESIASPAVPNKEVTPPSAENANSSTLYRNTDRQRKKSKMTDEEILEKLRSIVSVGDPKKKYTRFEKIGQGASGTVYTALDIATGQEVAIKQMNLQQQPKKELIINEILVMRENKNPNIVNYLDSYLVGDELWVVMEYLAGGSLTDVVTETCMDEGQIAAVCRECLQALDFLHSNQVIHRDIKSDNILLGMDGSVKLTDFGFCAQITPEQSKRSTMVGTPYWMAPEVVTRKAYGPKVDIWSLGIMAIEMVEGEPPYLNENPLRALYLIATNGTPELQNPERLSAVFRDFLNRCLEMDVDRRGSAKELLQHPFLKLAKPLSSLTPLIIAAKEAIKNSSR
Sequence of RIOK1 (Q9BRS2 whole entry): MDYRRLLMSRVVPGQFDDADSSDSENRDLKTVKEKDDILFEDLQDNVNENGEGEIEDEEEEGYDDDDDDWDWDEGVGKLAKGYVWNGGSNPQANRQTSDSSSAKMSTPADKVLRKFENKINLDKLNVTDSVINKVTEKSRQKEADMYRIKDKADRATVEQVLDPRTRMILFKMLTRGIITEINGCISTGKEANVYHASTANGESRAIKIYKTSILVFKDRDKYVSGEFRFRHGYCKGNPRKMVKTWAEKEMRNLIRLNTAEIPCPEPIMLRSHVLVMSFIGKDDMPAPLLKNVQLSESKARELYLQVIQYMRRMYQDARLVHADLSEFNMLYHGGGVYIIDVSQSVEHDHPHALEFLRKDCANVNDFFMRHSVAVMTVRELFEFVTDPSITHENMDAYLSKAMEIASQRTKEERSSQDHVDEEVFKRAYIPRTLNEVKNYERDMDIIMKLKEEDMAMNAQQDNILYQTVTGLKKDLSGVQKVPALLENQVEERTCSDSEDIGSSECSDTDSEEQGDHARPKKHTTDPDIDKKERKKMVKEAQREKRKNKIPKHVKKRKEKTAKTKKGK
Sequence of CSK (P41240 whole entry): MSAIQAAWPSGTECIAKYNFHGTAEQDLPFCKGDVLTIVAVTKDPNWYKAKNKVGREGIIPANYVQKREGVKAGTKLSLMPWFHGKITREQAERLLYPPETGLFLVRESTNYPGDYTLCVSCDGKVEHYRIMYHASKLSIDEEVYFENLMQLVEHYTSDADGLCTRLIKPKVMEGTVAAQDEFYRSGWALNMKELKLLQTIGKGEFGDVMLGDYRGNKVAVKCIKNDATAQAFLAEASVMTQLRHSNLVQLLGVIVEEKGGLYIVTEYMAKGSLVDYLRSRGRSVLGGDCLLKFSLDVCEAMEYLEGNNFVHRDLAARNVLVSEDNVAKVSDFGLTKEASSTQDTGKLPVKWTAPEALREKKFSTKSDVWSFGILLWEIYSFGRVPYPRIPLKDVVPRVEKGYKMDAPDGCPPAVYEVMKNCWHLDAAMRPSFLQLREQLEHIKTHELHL
Sequence of PIK3CD (O00329 whole entry): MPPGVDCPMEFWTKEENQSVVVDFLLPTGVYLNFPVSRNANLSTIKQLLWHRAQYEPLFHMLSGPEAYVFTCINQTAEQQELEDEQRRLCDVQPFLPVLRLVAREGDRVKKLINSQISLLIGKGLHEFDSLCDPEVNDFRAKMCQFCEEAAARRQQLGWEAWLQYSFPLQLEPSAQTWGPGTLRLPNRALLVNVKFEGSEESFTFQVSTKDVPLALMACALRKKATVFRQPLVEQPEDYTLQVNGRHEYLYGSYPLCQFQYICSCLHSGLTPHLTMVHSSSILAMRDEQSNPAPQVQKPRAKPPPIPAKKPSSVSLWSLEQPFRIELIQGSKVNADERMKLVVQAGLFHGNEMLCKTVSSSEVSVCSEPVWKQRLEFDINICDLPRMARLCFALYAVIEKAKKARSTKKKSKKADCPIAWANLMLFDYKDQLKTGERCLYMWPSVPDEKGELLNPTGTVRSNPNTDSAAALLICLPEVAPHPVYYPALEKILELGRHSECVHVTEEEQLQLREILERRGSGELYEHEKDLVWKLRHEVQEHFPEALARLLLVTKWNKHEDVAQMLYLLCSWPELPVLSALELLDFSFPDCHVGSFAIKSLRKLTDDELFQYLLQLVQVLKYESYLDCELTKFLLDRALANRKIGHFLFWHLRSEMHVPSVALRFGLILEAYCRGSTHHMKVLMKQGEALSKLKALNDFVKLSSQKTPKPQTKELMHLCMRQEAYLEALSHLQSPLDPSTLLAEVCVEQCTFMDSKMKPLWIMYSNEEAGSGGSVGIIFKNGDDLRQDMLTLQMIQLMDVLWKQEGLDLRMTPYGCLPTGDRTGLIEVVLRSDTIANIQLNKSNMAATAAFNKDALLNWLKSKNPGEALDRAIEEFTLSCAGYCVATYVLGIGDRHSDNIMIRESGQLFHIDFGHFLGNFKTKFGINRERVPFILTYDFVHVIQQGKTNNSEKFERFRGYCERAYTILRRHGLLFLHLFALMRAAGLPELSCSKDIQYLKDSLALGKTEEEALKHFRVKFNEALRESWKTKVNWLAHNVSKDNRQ
Sequence of TRKA (P04629 33-796): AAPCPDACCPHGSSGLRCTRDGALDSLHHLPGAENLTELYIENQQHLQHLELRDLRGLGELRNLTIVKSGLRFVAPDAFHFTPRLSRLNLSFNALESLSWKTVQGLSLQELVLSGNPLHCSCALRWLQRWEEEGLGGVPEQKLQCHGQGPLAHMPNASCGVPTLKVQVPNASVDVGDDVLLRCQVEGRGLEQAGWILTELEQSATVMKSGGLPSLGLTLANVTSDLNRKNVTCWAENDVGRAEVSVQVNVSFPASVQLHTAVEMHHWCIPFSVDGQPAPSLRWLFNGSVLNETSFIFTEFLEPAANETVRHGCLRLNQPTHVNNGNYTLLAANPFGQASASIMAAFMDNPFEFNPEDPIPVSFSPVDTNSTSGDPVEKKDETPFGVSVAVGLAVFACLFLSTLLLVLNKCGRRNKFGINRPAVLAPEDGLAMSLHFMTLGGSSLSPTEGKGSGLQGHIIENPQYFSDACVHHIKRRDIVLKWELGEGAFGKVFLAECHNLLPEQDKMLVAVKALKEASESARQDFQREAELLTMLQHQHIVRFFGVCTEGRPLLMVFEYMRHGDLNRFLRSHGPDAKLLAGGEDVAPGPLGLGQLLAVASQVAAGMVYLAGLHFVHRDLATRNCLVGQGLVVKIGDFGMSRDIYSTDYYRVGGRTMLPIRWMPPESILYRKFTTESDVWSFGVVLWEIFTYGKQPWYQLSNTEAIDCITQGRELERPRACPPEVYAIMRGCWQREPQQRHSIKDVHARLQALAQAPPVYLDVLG
Sequence of MARK4 (Q96L34 whole entry): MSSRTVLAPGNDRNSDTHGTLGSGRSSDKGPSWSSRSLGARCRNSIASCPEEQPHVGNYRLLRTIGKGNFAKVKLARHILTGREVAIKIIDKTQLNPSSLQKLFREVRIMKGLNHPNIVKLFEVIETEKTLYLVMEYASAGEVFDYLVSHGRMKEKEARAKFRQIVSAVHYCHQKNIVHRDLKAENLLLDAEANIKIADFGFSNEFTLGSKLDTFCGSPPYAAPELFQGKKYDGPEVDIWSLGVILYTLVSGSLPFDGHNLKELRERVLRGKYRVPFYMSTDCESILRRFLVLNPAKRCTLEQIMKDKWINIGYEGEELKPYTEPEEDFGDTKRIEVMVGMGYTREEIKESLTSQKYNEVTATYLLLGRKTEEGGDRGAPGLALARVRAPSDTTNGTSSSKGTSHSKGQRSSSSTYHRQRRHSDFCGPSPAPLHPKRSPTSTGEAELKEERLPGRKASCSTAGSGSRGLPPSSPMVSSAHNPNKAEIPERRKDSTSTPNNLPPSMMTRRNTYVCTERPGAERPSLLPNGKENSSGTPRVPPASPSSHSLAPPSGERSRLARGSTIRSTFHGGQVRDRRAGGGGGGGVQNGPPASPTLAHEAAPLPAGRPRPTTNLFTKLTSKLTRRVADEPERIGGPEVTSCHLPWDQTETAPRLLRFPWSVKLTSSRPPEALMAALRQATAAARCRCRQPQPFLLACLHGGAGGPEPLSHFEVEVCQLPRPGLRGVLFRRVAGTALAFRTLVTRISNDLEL
Sequence of JAK1 (JH2 domain-pseudokinase) (P23458 583-855): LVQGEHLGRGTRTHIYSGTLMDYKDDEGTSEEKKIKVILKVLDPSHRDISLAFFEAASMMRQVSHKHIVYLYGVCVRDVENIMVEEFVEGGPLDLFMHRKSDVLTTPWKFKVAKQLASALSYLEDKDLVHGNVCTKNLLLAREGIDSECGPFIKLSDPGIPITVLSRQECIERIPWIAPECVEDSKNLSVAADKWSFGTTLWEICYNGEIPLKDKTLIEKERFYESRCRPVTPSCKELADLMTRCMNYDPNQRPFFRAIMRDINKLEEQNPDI

## COc1ccc(N2C(=O)N(c3c(C)cccc3C)Cc3cnc(Nc4ccc(N5CCN(C)CC5)cc4)nc32)c(OC)c1 [HG-11-136-01]
ACVR1B
  KINOMEscan ACVR1B: 9.6
ACVRL1
  KINOMEscan ACVRL1: 16
ANKK1
  KINOMEscan ANKK1: 68
CDK8
  KINOMEscan CDK8: 100
CDKL3
  KINOMEscan CDKL3: 58
CHEK1
  KINOMEscan CHEK1: 82
CIT
  KINOMEscan CIT: 58
CLK4
  KINOMEscan CLK4: 33
CSF1R
  KINOMEscan CSF1R: 0.35
CSK
  KINOMEscan CSK: 0.3
DAPK1
  KINOMEscan DAPK1: 63
DAPK2
  KINOMEscan DAPK2: 88
EGFR (L858R, T790M)
  KINOMEscan EGFR (L858R, T790M): 1.7
ERN1
  KINOMEscan ERN1: 13
IRAK3
  KINOMEscan IRAK3: 38
[1]
  KINOMEscan JAK1 (JH2 domain-pseudokinase): 8.1
LIMK1
  KINOMEscan LIMK1: 0.05
LYN
  KINOMEscan LYN: 0
MARK3
  KINOMEscan MARK3: 1.6
MARK4
  KINOMEscan MARK4: 32
MEK1
  KINOMEscan MEK1: 0.55
MET (Y1235D)
  KINOMEscan MET (Y1235D): 61
MRCKB
  KINOMEscan MRCKB: 38
MYLK
  KINOMEscan MYLK: 86
NEK1
  KINOMEscan NEK1: 88
PAK3
  KINOMEscan PAK3: 11
PCTK2
  KINOMEscan PCTK2: 91
PIK3CA
  KINOMEscan PIK3CA: 100
PIK3CD
  KINOMEscan PIK3CD: 72
PIK4CB
  KINOMEscan PIK4CB: 63
PKAC-alpha
  KINOMEscan PKAC-alpha: 85
PLK3
  KINOMEscan PLK3: 31
PRKCH
  KINOMEscan PRKCH: 100
PRKCQ
  KINOMEscan PRKCQ: 80
RIOK1
  KINOMEscan RIOK1: 9.2
RIPK1
  KINOMEscan RIPK1: 35
SGK3
  KINOMEscan SGK3: 77
SRPK3
  KINOMEscan SRPK3: 70
TRKA
  KINOMEscan TRKA: 41
TSSK1B
  KINOMEscan TSSK1B: 50
ULK3
  KINOMEscan ULK3: 2
